Results as given in patent US10597388B2, “Pyridazinone herbicides” (FMC CORPORATION, priority 2014, dated 2020).

Assays:
Format in all cases: in vivo
[1] = test system: barnyardgrass (Echinochloa crus-galli); assay: Test B flooded paddy test; settings: 250 g ai/ha, Flood; visual rating on scale of 0 to 100 where 0 is no effect and 100 is complete control; 13 to 15 d after treatment
Method in brief: (§1)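 Plants grown to the 2-leaf stage. At treatment, pots were flooded to 3 cm above the soil, compound was applied directly to the paddy water, and that depth was held throughout. After 13 to 15 d in the greenhouse, response was rated visually against controls on a 0 (no effect) to 100 (complete control) scale.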

[2] = test system: ducksalad (Heteranthera limosa); assay: Test B flooded paddy test; settings: 250 g ai/ha, Flood; visual rating on scale of 0 to 100 where 0 is no effect and 100 is complete control; 13 to 15 d after treatment
Method in brief: as §1

[3] = test system: rice (Oryza sativa); assay: Test B flooded paddy test; settings: 250 g ai/ha, Flood; visual rating on scale of 0 to 100 where 0 is no effect and 100 is complete control; 13 to 15 d after treatment
Method in brief: as §1

[4] = test system: sedge, umbrella (small-flower umbrella sedge, Cyperus difformis); assay: Test B flooded paddy test; settings: 250 g ai/ha, Flood; visual rating on scale of 0 to 100 where 0 is no effect and 100 is complete control; 13 to 15 d after treatment
Method in brief: as §1

[5] = test system: blackgrass (Alopecurus myosuroides); assay: Test A greenhouse herbicide test, postemergence; settings: for Blackgrass plant response rating: 0 is no effect, 100 is complete control
Method in brief: (§2)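 Visual injury score, 0 (no effect) to 100 (complete control), versus untreated controls roughly 10 d after postemergence spray; plants at one- to two-leaf stage, 2 to 10 cm tall, in loam soil and sand, kept in greenhouse.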

[6] = test system: galium (catchweed bedstraw, Galium aparine); assay: Test A greenhouse herbicide test, postemergence
Method in brief: as §2

[7] = test system: kochia (Kochia scoparia); assay: Test A greenhouse herbicide test, pre- and postemergence
Method in brief: (§3)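 Seeds in loam–sand blend received a preemergence directed soil spray; plants at 2–10 cm, one- to two-leaf stage, received postemergence sprays. Compounds in a non-phytotoxic solvent with surfactant. After about 10 d in a greenhouse, injury rated visually versus untreated controls on a 0–100 scale (100 = complete control).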

[8] = test system: barnyardgrass (Echinochloa crus-galli); assay: as above
Method in brief: as §3

[9] = test system: corn (Zea mays); assay: as above; settings: Postemergence
Method in brief: as §3

[10] = test system: pigweed (Amaranthus retroflexus); assay: as above
Method in brief: as §3

[11] = test system: foxtail, giant (giant foxtail, Setaria faberii); assay: as above
Method in brief: as §3

[12] = test system: wheat (Triticum aestivum); assay: as above; settings: Postemergence
Method in brief: as §3

[13] = test system: ragweed (common ragweed, Ambrosia elatior); assay: as above
Method in brief: as §3

[14] = test system: ryegrass, Italian (Italian ryegrass, Lolium multiflorum); assay: as above
Method in brief: as §3

[15] = 125 g ai/ha, 0 to 100 scale where 0 is no effect and 100 is complete control
[16] = 500 g ai/ha, 0 to 100 scale, 0 is no effect, 100 is complete control
[17] = Postemergence, 125 g ai/ha, 0 to 100 scale where 0 is no effect and 100 is complete control
[18] = Postemergence, 500 g ai/ha, 0 to 100 scale, 0 is no effect, 100 is complete control
[19] = Preemergence, 125 g ai/ha, 0 to 100 scale where 0 is no effect and 100 is complete control
[20] = Preemergence, 500 g ai/ha, 0 to 100 scale, 0 no effect, 100 complete control
[21] = 125 g ai/ha, 0 to 100 scale, 0 no effect, 100 complete control
[22] = 500 g ai/ha, visual rating after approx. 10 d, 0 to 100 scale (0 no effect, 100 complete control)
[23] = Postemergence, 125 g ai/ha, 0 to 100 scale, 0 no effect, 100 complete control
[24] = Postemergence, 500 g ai/ha, visual rating after approx. 10 d, 0 to 100 scale (0 no effect, 100 complete control)
[25] = Preemergence, 125 g ai/ha, visual injury rating, 0 to 100 scale (0 no effect, 100 complete control), approx. 10 d
[26] = Preemergence, 500 g ai/ha, 0 to 100 scale where 0 is no effect and 100 is complete control

Cc1ccc(-c2c(O)cnn(C)c2=O)c2ccccc12 [Compound 50]
Plant response rating, Barnyardgrass [1]: 0 | Plant response rating, Ducksalad [2]: 0 | Plant response rating, Rice [3]: 0 | Plant response rating, Sedge, Umbrella [4]: 0 | Plant response rating, Blackgrass [5, 15]: 0 | Blackgrass plant response rating ([5]; 500 g ai/ha, 0 to 100 scale): 10 | Plant response rating, Galium [6, 15]: 60 | Galium plant response rating [6, 16]: 80 | Plant response rating, Kochia [7, 17]: 0 | Kochia plant response rating [7, 18]: 20 | Kochia plant response rating [7, 19]: 0 | Plant response rating, Kochia [7, 20]: 0 | Plant response rating, Barnyardgrass [8, 17]: 0 | Barnyardgrass plant response rating [8, 18]: 0 | Barnyardgrass plant response rating [8, 19]: 0 | Plant response rating, Barnyardgrass [8, 20]: 0 | Plant response rating, Corn [9, 15]: 0 | Corn plant response rating [9, 16]: 0 | Plant response rating, Pigweed [10, 17]: 20 | Pigweed plant response rating [10, 18]: 50 | Pigweed plant response rating [10, 19]: 0 | Plant response rating, Pigweed [10, 20]: 0 | Plant response rating, Foxtail, Giant [11, 17]: 0 | Foxtail, Giant plant response rating [11, 18]: 0 | Foxtail, Giant plant response rating [11, 19]: 0 | Plant response rating, Foxtail, Giant [11, 20]: 0 | Plant response rating, Wheat [12, 15]: 0 | Wheat plant response rating [12, 16]: 0 | Plant response rating, Ragweed [13, 17]: 0 | Ragweed plant response rating [13, 18]: 20 | Ragweed plant response rating [13, 19]: 0 | Plant response rating, Ragweed [13, 20]: 0 | Plant response rating, Ryegrass, Italian [14, 17]: 20 | Ryegrass, Italian plant response rating [14, 18]: 40 | Ryegrass, Italian plant response rating [14, 19]: 0 | Plant response rating, Ryegrass, Italian [14, 20]: 10

Cc1nn(C)c(=O)c(-c2c(C)sc3ccccc23)c1OC(=O)N1CCOCC1 [Compound 170]
Plant response rating, Barnyardgrass [1]: 0 | Plant response rating, Ducksalad [2]: 0 | Plant response rating, Rice [3]: 0 | Plant response rating, Sedge, Umbrella [4]: 60 | Plant response rating, Blackgrass [5, 21]: 0 | Plant response rating, Blackgrass [5, 22]: 10 | Plant response rating, Galium [6, 21]: 40 | Plant response rating, Galium [6, 22]: 80 | Plant response rating, Kochia [7, 23]: 0 | Plant response rating, Kochia [7, 24]: 70 | Plant response rating, Kochia [7, 25]: 0 | Plant response rating, Kochia [7, 26]: 0 | Plant response rating, Barnyardgrass [8, 23]: 0 | Plant response rating, Barnyardgrass [8, 24]: 10 | Plant response rating, Barnyardgrass [8, 25]: 0 | Plant response rating, Barnyardgrass [8, 26]: 0 | Plant response rating, Corn [9, 21]: 0 | Plant response rating, Corn [9, 22]: 0 | Plant response rating, Pigweed [10, 23]: 70 | Plant response rating, Pigweed [10, 24]: 80 | Plant response rating, Pigweed [10, 25]: 30 | Plant response rating, Pigweed [10, 26]: 100 | Plant response rating, Foxtail, Giant [11, 23]: 0 | Plant response rating, Foxtail, Giant [11, 24]: 10 | Plant response rating, Foxtail, Giant [11, 25]: 0 | Plant response rating, Foxtail, Giant [11, 26]: 0 | Plant response rating, Wheat [12, 21]: 0 | Plant response rating, Wheat [12, 22]: 0 | Plant response rating, Ragweed [13, 23]: 40 | Plant response rating, Ragweed [13, 24]: 80 | Plant response rating, Ragweed [13, 25]: 0 | Plant response rating, Ragweed [13, 26]: 20 | Plant response rating, Ryegrass, Italian [14, 23]: 0 | Plant response rating, Ryegrass, Italian [14, 24]: 50 | Plant response rating, Ryegrass, Italian [14, 25]: 0 | Plant response rating, Ryegrass, Italian [14, 26]: 40

COC(=O)Oc1c(Cl)nn(C)c(=O)c1-c1c(C)sc2ccc(Cl)cc12 [Compound 101]
Plant response rating, Barnyardgrass [1]: 0 | Plant response rating, Ducksalad [2]: 0 | Plant response rating, Rice [3]: 0 | Plant response rating, Sedge, Umbrella [4]: 0 | Plant response rating, Blackgrass [5, 15]: 20 | Blackgrass plant response rating ([5]; 500 g ai/ha, 0 to 100 scale): 40 | Plant response rating, Galium [6, 15]: 70 | Plant response rating, Galium [6, 22]: 90 | Plant response rating, Kochia [7, 17]: 20 | Plant response rating, Kochia [7, 24]: 30 | Kochia plant response rating [7, 19]: 0 | Plant response rating, Kochia [7, 26]: 40 | Plant response rating, Barnyardgrass [8, 17]: 0 | Barnyardgrass plant response rating [8, 18]: 30 | Barnyardgrass plant response rating [8, 19]: 0 | Plant response rating, Barnyardgrass [8, 26]: 30 | Plant response rating, Corn [9, 15]: 0 | Plant response rating, Corn [9, 22]: 20 | Plant response rating, Pigweed [10, 17]: 30 | Plant response rating, Pigweed [10, 24]: 70 | Pigweed plant response rating [10, 19]: 90 | Plant response rating, Pigweed [10, 26]: 90 | Plant response rating, Foxtail, Giant [11, 17]: 30 | Plant response rating, Foxtail, Giant [11, 24]: 50 | Foxtail, Giant plant response rating [11, 19]: 30 | Plant response rating, Foxtail, Giant [11, 26]: 60 | Plant response rating, Wheat [12, 15]: 0 | Plant response rating, Wheat [12, 22]: 20 | Plant response rating, Ragweed [13, 17]: 60 | Plant response rating, Ragweed [13, 24]: 80 | Ragweed plant response rating [13, 19]: 40 | Plant response rating, Ragweed [13, 26]: 40 | Plant response rating, Ryegrass, Italian [14, 17]: 30 | Plant response rating, Ryegrass, Italian [14, 24]: 50 | Ryegrass, Italian plant response rating [14, 19]: 60 | Plant response rating, Ryegrass, Italian [14, 26]: 100
